Here are results for ten compounds from ChEMBL document CHEMBL1149601, “Molecular design, chemical synthesis, and biological evaluation of '4-1' pentacyclic aryl/heteroaryl-imidazonaphthalimides” (Bioorg Med Chem, 2007).

SMILES strings stand for the structures.

The first assay deals with HL-60. As to the kind of experiment: Growth inhibition of human HL60 cells by MTT assay. It is filed as functional, cell-based.
Conditions: not given
A word on the IC50: it is the concentration needed to halve the response being measured. `CN(C)CCN1C(=O)c2cccc3c2c(cc2[nH]c(-c4ccoc4)nc23)C1=O` registered an IC50 of 5.21 µM. In other words, the single-digit micromolar range.

Take `CN(C)CCN1C(=O)c2cccc3c2c(cc2[nH]c(-c4ccccn4)nc23)C1=O`: the IC50 came out at 0.3 µM. Against the preceding compound, the IC50 is about 17-fold lower.

With `CCOc1ccc(-c2nc3c(cc4c5c(cccc53)C(=O)N(CCN(C)C)C4=O)[nH]2)cc1`, the 50% inhibitory concentration (IC50) was 4.58 µM. This IC50 lies about 15-fold higher than the previous one.

`CN(C)CCN1C(=O)c2cccc3c2c(cc2[nH]c(-c4ccc(N(C)C)cc4)nc23)C1=O` showed an IC50 of 1.08 µM.

In the case of `CN(C)CCN1C(=O)c2cccc3c2c(cc2[nH]c(-c4ccc(Cl)cc4)nc23)C1=O`, the concentration for half-maximal inhibition (IC50) stood at 3.28 µM.

Turning to `CN(C)CCN1C(=O)c2cccc3c2c(cc2[nH]c(-c4ccsc4)nc23)C1=O`, the concentration for half-maximal inhibition (IC50) turned out to be 0.58 µM.

The compound `CN(C)CCN1C(=O)c2cccc3cc(N)cc(c23)C1=O` [AMONAFIDE] showed an IC50 of 1.63 µM.

As for `CN(C)CCN1C(=O)c2cccc3c2c(cc2[nH]c(-c4cccs4)nc23)C1=O`, the 50% inhibitory concentration (IC50) worked out at 0.59 µM.

`CN(C)CCN1C(=O)c2cccc3c2c(cc2[nH]c(-c4cccnc4)nc23)C1=O` showed an IC50 of 1.33 µM.

Turning to `CN(C)CCN1C(=O)c2cccc3c2c(cc2[nH]c(-c4cccn4C)nc23)C1=O`, 3.66 µM corresponded to half-maximal inhibition (IC50).

Another assay concerns HeLa. As to the kind of experiment: Growth inhibition of human HeLa cells by MTT assay. Format: functional, cell-based.
Conditions: not given
As to `CN(C)CCN1C(=O)c2cccc3c2c(cc2[nH]c(-c4ccoc4)nc23)C1=O`, the IC50 turned out to be 13.9 µM. In other words, the double-digit micromolar range.

In turn, `CN(C)CCN1C(=O)c2cccc3c2c(cc2[nH]c(-c4ccccn4)nc23)C1=O` showed a 50% inhibitory concentration (IC50) of 2.71 µM.

Take `CCOc1ccc(-c2nc3c(cc4c5c(cccc53)C(=O)N(CCN(C)C)C4=O)[nH]2)cc1`: inhibition was half-maximal at 0.52 µM (IC50).

As for `CN(C)CCN1C(=O)c2cccc3c2c(cc2[nH]c(-c4ccc(N(C)C)cc4)nc23)C1=O`, 0.25 µM corresponded to half-maximal inhibition (IC50).

Turning to `CN(C)CCN1C(=O)c2cccc3c2c(cc2[nH]c(-c4ccc(Cl)cc4)nc23)C1=O`, the IC50 is 0.28 µM.

Turning to `CN(C)CCN1C(=O)c2cccc3c2c(cc2[nH]c(-c4ccsc4)nc23)C1=O`, the midpoint of inhibition, the IC50, lay at 0.54 µM.

`CN(C)CCN1C(=O)c2cccc3cc(N)cc(c23)C1=O` [AMONAFIDE] returned an IC50 of 1.4 µM.

With `CN(C)CCN1C(=O)c2cccc3c2c(cc2[nH]c(-c4cccs4)nc23)C1=O`, 1.34 µM corresponded to half-maximal inhibition (IC50). This IC50 and that of the compound before are within 1.5-fold of each other.

With `CN(C)CCN1C(=O)c2cccc3c2c(cc2[nH]c(-c4cccnc4)nc23)C1=O`, inhibition was half-maximal at 1.16 µM (IC50). This IC50 and that of the compound before are within 1.5-fold of each other.

The compound `CN(C)CCN1C(=O)c2cccc3c2c(cc2[nH]c(-c4cccn4C)nc23)C1=O` showed an IC50 of 7.98 µM.

In another assay the test system is SMMC-7721. As to the kind of experiment: Growth inhibition of human SMMC7721 cells by MTT assay.
Conditions: not given
Format: functional, cell-based.
Compound `CN(C)CCN1C(=O)c2cccc3c2c(cc2[nH]c(-c4ccoc4)nc23)C1=O` registered a half-inhibitory concentration (IC50) of 0.88 µM.

Consider `CN(C)CCN1C(=O)c2cccc3c2c(cc2[nH]c(-c4ccccn4)nc23)C1=O`, for which the midpoint of inhibition, the IC50, lay at 3.36 µM.

Consider `CCOc1ccc(-c2nc3c(cc4c5c(cccc53)C(=O)N(CCN(C)C)C4=O)[nH]2)cc1`, for which the midpoint of inhibition, the IC50, lay at 1.02 µM. Compared with the last compound, the IC50 is about 3.3-fold lower.

As to `CN(C)CCN1C(=O)c2cccc3c2c(cc2[nH]c(-c4ccc(N(C)C)cc4)nc23)C1=O`, 2.86 µM corresponded to half-maximal inhibition (IC50). Against the preceding compound, the IC50 is about 2.8-fold higher.

As to `CN(C)CCN1C(=O)c2cccc3c2c(cc2[nH]c(-c4ccc(Cl)cc4)nc23)C1=O`, the concentration for half-maximal inhibition (IC50) is 0.27 µM.

For `CN(C)CCN1C(=O)c2cccc3c2c(cc2[nH]c(-c4ccsc4)nc23)C1=O`, the concentration for half-maximal inhibition (IC50) came to 0.93 µM.

Compound `CN(C)CCN1C(=O)c2cccc3cc(N)cc(c23)C1=O` [AMONAFIDE] displayed a concentration for half-maximal inhibition (IC50) of 4.15 µM.

Compound `CN(C)CCN1C(=O)c2cccc3c2c(cc2[nH]c(-c4cccs4)nc23)C1=O` yielded a 50% inhibitory concentration (IC50) of 3.27 µM.

Consider `CN(C)CCN1C(=O)c2cccc3c2c(cc2[nH]c(-c4cccnc4)nc23)C1=O`, for which the 50% inhibitory concentration (IC50) was 1.29 µM.

Compound `CN(C)CCN1C(=O)c2cccc3c2c(cc2[nH]c(-c4cccn4C)nc23)C1=O` showed an IC50 of 2.9 µM.

In a further assay the test system is A549. As to the kind of experiment: Growth inhibition of human A549 cells by SRB assay. Format: functional, cell-based.
Conditions: not given
A general note: Sulforhodamine B stains cellular protein and so reports cell mass.
On to `CN(C)CCN1C(=O)c2cccc3c2c(cc2[nH]c(-c4ccoc4)nc23)C1=O`, for which the IC50 is 7.48 µM.

`CN(C)CCN1C(=O)c2cccc3c2c(cc2[nH]c(-c4ccccn4)nc23)C1=O`: the half-maximal inhibitory concentration (IC50) turned out to be 9.33 µM.

For `CCOc1ccc(-c2nc3c(cc4c5c(cccc53)C(=O)N(CCN(C)C)C4=O)[nH]2)cc1`, the half-inhibitory concentration (IC50) worked out at 14.7 µM. Against the preceding compound, the IC50 is about 1.6-fold higher.

Turning to `CN(C)CCN1C(=O)c2cccc3c2c(cc2[nH]c(-c4ccc(N(C)C)cc4)nc23)C1=O`, the IC50 came to 8.5 µM. This IC50 is about 1.7-fold lower than that of the compound before.

Compound `CN(C)CCN1C(=O)c2cccc3c2c(cc2[nH]c(-c4ccc(Cl)cc4)nc23)C1=O` gave a half-inhibitory concentration (IC50) of 9.13 µM.

Compound `CN(C)CCN1C(=O)c2cccc3c2c(cc2[nH]c(-c4ccsc4)nc23)C1=O` showed a half-maximal inhibitory concentration (IC50) of 8.59 µM.

Turning to `CN(C)CCN1C(=O)c2cccc3cc(N)cc(c23)C1=O` [AMONAFIDE], the concentration for half-maximal inhibition (IC50) came to 13 µM.

`CN(C)CCN1C(=O)c2cccc3c2c(cc2[nH]c(-c4cccs4)nc23)C1=O` came in with an IC50 of 6.67 µM.

`CN(C)CCN1C(=O)c2cccc3c2c(cc2[nH]c(-c4cccnc4)nc23)C1=O` yielded an IC50 of 9.97 µM.

Compound `CN(C)CCN1C(=O)c2cccc3c2c(cc2[nH]c(-c4cccn4C)nc23)C1=O` showed an IC50 of 0.41 µM.

The subject of another assay is DNA. The assay can be described thus: Binding affinity to calf thymus DNA. It is filed as nucleic-acid assay. The note with it: Bos taurus.
The term ΔTm denotes the change in melting temperature against a reference sample. `CN(C)CCN1C(=O)c2cccc3c2c(cc2[nH]c(-c4ccoc4)nc23)C1=O`: the ΔTm was determined as 6.7 °C.

With `CN(C)CCN1C(=O)c2cccc3c2c(cc2[nH]c(-c4ccccn4)nc23)C1=O`, the ΔTm worked out at 3.8 °C.

For the compound `CCOc1ccc(-c2nc3c(cc4c5c(cccc53)C(=O)N(CCN(C)C)C4=O)[nH]2)cc1`, the thermal shift (ΔTm) amounted to 10.5 °C.

As to `CN(C)CCN1C(=O)c2cccc3c2c(cc2[nH]c(-c4ccc(N(C)C)cc4)nc23)C1=O`, the ΔTm came out at 12.1 °C.

For the compound `CN(C)CCN1C(=O)c2cccc3c2c(cc2[nH]c(-c4ccc(Cl)cc4)nc23)C1=O`, the thermal shift (ΔTm) amounted to 7.1 °C.

As to `CN(C)CCN1C(=O)c2cccc3c2c(cc2[nH]c(-c4ccsc4)nc23)C1=O`, the ΔTm is 8.4 °C.

As to `CN(C)CCN1C(=O)c2cccc3c2c(cc2[nH]c(-c4cccs4)nc23)C1=O`, the ΔTm was 6.9 °C.

In the case of `CN(C)CCN1C(=O)c2cccc3c2c(cc2[nH]c(-c4cccnc4)nc23)C1=O`, the shift in melting temperature (ΔTm) came to 4 °C.

In the case of `CN(C)CCN1C(=O)c2cccc3c2c(cc2[nH]c(-c4cccn4C)nc23)C1=O`, the thermal shift (ΔTm) turned out to be 6.2 °C.

For the next assay, the system named is P388. The assay can be described thus: Growth inhibition of mouse P388 cells by MTT assay. It is filed as functional, cell-based.
Conditions: not given
As for `CN(C)CCN1C(=O)c2cccc3c2c(cc2[nH]c(-c4ccoc4)nc23)C1=O`, the IC50 was determined as 0.71 µM.

`CN(C)CCN1C(=O)c2cccc3c2c(cc2[nH]c(-c4ccccn4)nc23)C1=O` yielded an IC50 of 0.77 µM.

`CCOc1ccc(-c2nc3c(cc4c5c(cccc53)C(=O)N(CCN(C)C)C4=O)[nH]2)cc1` returned a half-inhibitory concentration (IC50) of 2.48 µM.

In turn, `CN(C)CCN1C(=O)c2cccc3c2c(cc2[nH]c(-c4ccc(N(C)C)cc4)nc23)C1=O` gave an IC50 of 1.68 µM.

Compound `CN(C)CCN1C(=O)c2cccc3c2c(cc2[nH]c(-c4ccc(Cl)cc4)nc23)C1=O` displayed an IC50 of 0.95 µM. This IC50 is about 1.8-fold lower than that of the compound before.

Take `CN(C)CCN1C(=O)c2cccc3c2c(cc2[nH]c(-c4ccsc4)nc23)C1=O`: the midpoint of inhibition, the IC50, lay at 0.16 µM. This IC50 lies about 5.9-fold lower than the previous one.

On to `CN(C)CCN1C(=O)c2cccc3cc(N)cc(c23)C1=O` [AMONAFIDE], for which half-maximal inhibition (IC50) required 4.56 µM.

Regarding `CN(C)CCN1C(=O)c2cccc3c2c(cc2[nH]c(-c4cccs4)nc23)C1=O`, the IC50 is 4.15 µM.

The compound `CN(C)CCN1C(=O)c2cccc3c2c(cc2[nH]c(-c4cccnc4)nc23)C1=O` registered a half-maximal inhibitory concentration (IC50) of 2.31 µM. Against the preceding compound, the IC50 is about 1.8-fold lower.

For the compound `CN(C)CCN1C(=O)c2cccc3c2c(cc2[nH]c(-c4cccn4C)nc23)C1=O`, the IC50 was determined as 0.21 µM.
